Results taken from the NIST ThermoML archive (doi:10.1021/je060271a).
± gives the expanded uncertainty stated by the source.

Conditions: 323.16 K, Liquid, Vibrating tube method

## CCCCCC(=O)OCC(COC(=O)CCCCC)(COC(=O)CCCCC)COC(=O)CCCCC [pentaerythritol tetrahexanoate]
20616 kPa
  mass density: 986.5 ± 1.2 kg/m3
20645 kPa
  mass density: 986.3 ± 1.2 kg/m3
20674 kPa
  mass density: 986.4 ± 1.2 kg/m3
20698 kPa
  mass density: 986.4 ± 1.2 kg/m3
20727 kPa
  mass density: 986.4 ± 1.2 kg/m3
20756 kPa
  mass density: 986.4 ± 1.2 kg/m3
20787 kPa
  mass density: 986.5 ± 1.2 kg/m3
20811 kPa
  mass density: 986.6 ± 1.2 kg/m3
20841 kPa
  mass density: 986.5 ± 1.2 kg/m3
20871 kPa
  mass density: 986.5 ± 1.2 kg/m3
20925 kPa
  mass density: 986.7 ± 1.2 kg/m3
20955 kPa
  mass density: 986.6 ± 1.2 kg/m3
20984 kPa
  mass density: 986.5 ± 1.2 kg/m3
21013 kPa
  mass density: 986.7 ± 1.2 kg/m3
21035 kPa
  mass density: 986.7 ± 1.2 kg/m3
21061 kPa
  mass density: 986.7 ± 1.2 kg/m3
21087 kPa
  mass density: 986.7 ± 1.2 kg/m3
21113 kPa
  mass density: 986.7 ± 1.2 kg/m3
21139 kPa
  mass density: 986.7 ± 1.2 kg/m3
21161 kPa
  mass density: 986.8 ± 1.2 kg/m3
21187 kPa
  mass density: 986.8 ± 1.2 kg/m3
21214 kPa
  mass density: 986.8 ± 1.2 kg/m3
21236 kPa
  mass density: 986.9 ± 1.2 kg/m3
21262 kPa
  mass density: 986.9 ± 1.2 kg/m3
21289 kPa
  mass density: 987 ± 1.2 kg/m3
21316 kPa
  mass density: 986.8 ± 1.2 kg/m3
21342 kPa
  mass density: 986.8 ± 1.2 kg/m3
21368 kPa
  mass density: 986.9 ± 1.2 kg/m3
21391 kPa
  mass density: 986.9 ± 1.2 kg/m3
21418 kPa
  mass density: 987 ± 1.2 kg/m3
21445 kPa
  mass density: 987 ± 1.2 kg/m3
21467 kPa
  mass density: 986.9 ± 1.2 kg/m3
21494 kPa
  mass density: 987 ± 1.2 kg/m3
21522 kPa
  mass density: 986.9 ± 1.2 kg/m3
21550 kPa
  mass density: 987.1 ± 1.2 kg/m3
21572 kPa
  mass density: 987.1 ± 1.2 kg/m3
21599 kPa
  mass density: 987.1 ± 1.2 kg/m3
21626 kPa
  mass density: 987 ± 1.2 kg/m3
21654 kPa
  mass density: 987 ± 1.2 kg/m3
21681 kPa
  mass density: 987.1 ± 1.2 kg/m3
21708 kPa
  mass density: 987.1 ± 1.2 kg/m3
21730 kPa
  mass density: 987.1 ± 1.2 kg/m3
21755 kPa
  mass density: 987.2 ± 1.2 kg/m3
21780 kPa
  mass density: 987.2 ± 1.2 kg/m3
21806 kPa
  mass density: 987.2 ± 1.2 kg/m3
21832 kPa
  mass density: 987.2 ± 1.2 kg/m3
21854 kPa
  mass density: 987.2 ± 1.2 kg/m3
21880 kPa
  mass density: 987.3 ± 1.2 kg/m3
21902 kPa
  mass density: 987.2 ± 1.2 kg/m3
21928 kPa
  mass density: 987.2 ± 1.2 kg/m3
21954 kPa
  mass density: 987.4 ± 1.2 kg/m3
21980 kPa
  mass density: 987.2 ± 1.2 kg/m3
22005 kPa
  mass density: 987.2 ± 1.2 kg/m3
22031 kPa
  mass density: 987.3 ± 1.2 kg/m3
22053 kPa
  mass density: 987.4 ± 1.2 kg/m3
22079 kPa
  mass density: 987.4 ± 1.2 kg/m3
22105 kPa
  mass density: 987.4 ± 1.2 kg/m3
22131 kPa
  mass density: 987.3 ± 1.2 kg/m3
22154 kPa
  mass density: 987.3 ± 1.2 kg/m3
22182 kPa
  mass density: 987.4 ± 1.2 kg/m3
22208 kPa
  mass density: 987.5 ± 1.2 kg/m3
22231 kPa
  mass density: 987.4 ± 1.2 kg/m3
22541 kPa
  mass density: 987.6 ± 1.2 kg/m3
22566 kPa
  mass density: 987.6 ± 1.2 kg/m3
22591 kPa
  mass density: 987.9 ± 1.2 kg/m3
22616 kPa
  mass density: 987.7 ± 1.2 kg/m3
22641 kPa
  mass density: 987.7 ± 1.2 kg/m3
22688 kPa
  mass density: 987.8 ± 1.2 kg/m3
22713 kPa
  mass density: 987.8 ± 1.2 kg/m3
22739 kPa
  mass density: 987.7 ± 1.2 kg/m3
22760 kPa
  mass density: 987.7 ± 1.2 kg/m3
22786 kPa
  mass density: 987.7 ± 1.2 kg/m3
22812 kPa
  mass density: 987.8 ± 1.2 kg/m3
22838 kPa
  mass density: 987.8 ± 1.2 kg/m3
22858 kPa
  mass density: 987.8 ± 1.2 kg/m3
22884 kPa
  mass density: 987.8 ± 1.2 kg/m3
22910 kPa
  mass density: 987.9 ± 1.2 kg/m3
22936 kPa
  mass density: 987.9 ± 1.2 kg/m3
22957 kPa
  mass density: 988 ± 1.2 kg/m3
22983 kPa
  mass density: 987.9 ± 1.2 kg/m3
23009 kPa
  mass density: 988 ± 1.2 kg/m3
23035 kPa
  mass density: 987.9 ± 1.2 kg/m3
23061 kPa
  mass density: 988 ± 1.2 kg/m3
23083 kPa
  mass density: 987.9 ± 1.2 kg/m3
23110 kPa
  mass density: 988.1 ± 1.2 kg/m3
23136 kPa
  mass density: 988.1 ± 1.2 kg/m3
23162 kPa
  mass density: 988 ± 1.2 kg/m3
23189 kPa
  mass density: 988.1 ± 1.2 kg/m3
23215 kPa
  mass density: 988 ± 1.2 kg/m3
23238 kPa
  mass density: 988 ± 1.2 kg/m3
23264 kPa
  mass density: 988.1 ± 1.2 kg/m3
23292 kPa
  mass density: 988 ± 1.2 kg/m3
23319 kPa
  mass density: 988.2 ± 1.2 kg/m3
23346 kPa
  mass density: 988.2 ± 1.2 kg/m3
23370 kPa
  mass density: 988.1 ± 1.2 kg/m3
23397 kPa
  mass density: 988.2 ± 1.2 kg/m3
23424 kPa
  mass density: 988.2 ± 1.2 kg/m3
23447 kPa
  mass density: 988.3 ± 1.2 kg/m3
23473 kPa
  mass density: 988.3 ± 1.2 kg/m3
23498 kPa
  mass density: 988.2 ± 1.2 kg/m3
23522 kPa
  mass density: 988.3 ± 1.2 kg/m3
23542 kPa
  mass density: 988.2 ± 1.2 kg/m3
23566 kPa
  mass density: 988.2 ± 1.2 kg/m3
23591 kPa
  mass density: 988.3 ± 1.2 kg/m3
23615 kPa
  mass density: 988.3 ± 1.2 kg/m3
23641 kPa
  mass density: 988.4 ± 1.2 kg/m3
23661 kPa
  mass density: 988.3 ± 1.2 kg/m3
23686 kPa
  mass density: 988.3 ± 1.2 kg/m3
23710 kPa
  mass density: 988.4 ± 1.2 kg/m3
23736 kPa
  mass density: 988.4 ± 1.2 kg/m3
23761 kPa
  mass density: 988.3 ± 1.2 kg/m3
23782 kPa
  mass density: 988.3 ± 1.2 kg/m3
23807 kPa
  mass density: 988.4 ± 1.2 kg/m3
23832 kPa
  mass density: 988.4 ± 1.2 kg/m3
23858 kPa
  mass density: 988.5 ± 1.2 kg/m3
23879 kPa
  mass density: 988.4 ± 1.2 kg/m3
23904 kPa
  mass density: 988.4 ± 1.2 kg/m3
23930 kPa
  mass density: 988.5 ± 1.2 kg/m3
23956 kPa
  mass density: 988.4 ± 1.2 kg/m3
23981 kPa
  mass density: 988.6 ± 1.2 kg/m3
24006 kPa
  mass density: 988.6 ± 1.2 kg/m3
24028 kPa
  mass density: 988.5 ± 1.2 kg/m3
24053 kPa
  mass density: 988.5 ± 1.2 kg/m3
24079 kPa
  mass density: 988.5 ± 1.2 kg/m3
24103 kPa
  mass density: 988.5 ± 1.2 kg/m3
24128 kPa
  mass density: 988.6 ± 1.2 kg/m3
24154 kPa
  mass density: 988.6 ± 1.2 kg/m3
24180 kPa
  mass density: 988.6 ± 1.2 kg/m3
24202 kPa
  mass density: 988.7 ± 1.2 kg/m3
24228 kPa
  mass density: 988.6 ± 1.2 kg/m3
24254 kPa
  mass density: 988.6 ± 1.2 kg/m3
24281 kPa
  mass density: 988.8 ± 1.2 kg/m3
24303 kPa
  mass density: 988.7 ± 1.2 kg/m3
24329 kPa
  mass density: 988.8 ± 1.2 kg/m3
24355 kPa
  mass density: 988.7 ± 1.2 kg/m3
24382 kPa
  mass density: 988.8 ± 1.2 kg/m3
24410 kPa
  mass density: 988.7 ± 1.2 kg/m3
24431 kPa
  mass density: 988.6 ± 1.2 kg/m3
24458 kPa
  mass density: 988.8 ± 1.2 kg/m3
24480 kPa
  mass density: 988.9 ± 1.2 kg/m3
24507 kPa
  mass density: 988.9 ± 1.2 kg/m3
24535 kPa
  mass density: 989 ± 1.2 kg/m3
24562 kPa
  mass density: 988.8 ± 1.2 kg/m3
24589 kPa
  mass density: 989 ± 1.2 kg/m3
24612 kPa
  mass density: 989 ± 1.2 kg/m3
